PubChem BioAssay AID330 (DTP/NCI, 2004)
“And” between values parts separate entries of the source, which are not always exact repeats. Equal values may be shown once. Toxic doses and inconclusive results are not listed. Square brackets hold non-standard residues; d marks the D form. Peptide text beside a SMILES is read from it. * marks the point of attachment. Cbz = O=C(OCc1ccccc1)*; Nva = CCC[CH](N)C(=O)O

Tested on: P388 leukemia ip, CD2F1 mice, survival T/C
Test: NCI In Vivo Anticancer Drug Screen. Data for tumor model P388 Leukemia (intraperitoneal) in CD2F1 (CDF1) mice
Conditions: endpoint: median survival time, higher = longer survival
Procedure, shortened: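 Mice carrying the transplanted tumor received test compound or vehicle. Survival was recorded in each group, and the value is the treated-group measurement divided by that of the vehicle-treated control group.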

[1] = dose: 50.0 mg/kg/injection, schedule: Q01DX005 (ip), vehicle: saline with Tween-80
[2] = dose: 100.0 mg/kg/injection, schedule: Q01DX005 (ip), vehicle: saline with Tween-80
[3] = dose: 200.0 mg/kg/injection, schedule: Q01DX005 (ip), vehicle: saline with Tween-80
[4] = dose: 50.0 mg/kg/injection, schedule: Q01DX005 (ip), vehicle: Klucel (hydroxypropylcellulose) (HPC)
[5] = dose: 100.0 mg/kg/injection, schedule: Q01DX005 (ip), vehicle: Klucel (hydroxypropylcellulose) (HPC)
[6] = dose: 200.0 mg/kg/injection, schedule: Q01DX005 (ip), vehicle: Klucel (hydroxypropylcellulose) (HPC)
[7] = dose: 25.0 mg/kg/injection, schedule: Q01DX009 (ip), vehicle: saline with Tween-80
[8] = dose: 50.0 mg/kg/injection, schedule: Q01DX009 (ip), vehicle: saline with Tween-80
[9] = dose: 100.0 mg/kg/injection, schedule: Q01DX009 (ip), vehicle: saline with Tween-80
[10] = dose: 200.0 mg/kg/injection, schedule: Q01DX009 (ip), vehicle: saline with Tween-80
[11] = dose: 60.0 mg/kg/injection, schedule: Q01DX005 (ip), vehicle: Klucel (hydroxypropylcellulose) (HPC)
[12] = dose: 120.0 mg/kg/injection, schedule: Q01DX005 (ip), vehicle: Klucel (hydroxypropylcellulose) (HPC)
[13] = dose: 60.0 mg/kg/injection, schedule: Q01DX005 (ip), vehicle: saline with Tween-80
[14] = dose: 120.0 mg/kg/injection, schedule: Q01DX005 (ip), vehicle: saline with Tween-80

For `O=NN(CCCl)C(=O)NC1CCC(=O)NC1=O` (configuration not stated), the T/C (dose: 0.5 mg/kg/injection, schedule: Q04DX003 (ip), vehicle: saline) was 122 % of control, the T/C (dose: 1.0 mg/kg/injection, schedule: Q04DX003 (ip), vehicle: saline) was 154 % of control and the T/C (dose: 2.0 mg/kg/injection, schedule: Q01DX005 (ip), vehicle: saline + alcohol) was 214 % of control. For the same compound, the T/C (dose: 2.0 mg/kg/injection, schedule: Q01DX005 (iv), vehicle: saline + alcohol) was 117 % of control, the T/C (dose: 2.0 mg/kg/injection, schedule: Q04DX003 (ip), vehicle: saline) was 195 % of control and the T/C (dose: 3.13 mg/kg/injection, schedule: Q01DX009 (ip), vehicle: saline with Tween-80) was 118 % of control. The T/C (dose: 4.0 mg/kg/injection, schedule: Q01DX001 (ip), vehicle: saline + alcohol) was 172 % of control, the T/C (dose: 4.0 mg/kg/injection, schedule: Q01DX005 (ip), vehicle: saline + alcohol) was 315 % of control and the T/C (dose: 4.0 mg/kg/injection, schedule: Q01DX005 (iv), vehicle: saline + alcohol) was 205 % of control. The T/C (dose: 4.0 mg/kg/injection, schedule: Q01DX005 (oral), vehicle: saline + alcohol) was 207 % of control, the T/C (dose: 4.0 mg/kg/injection, schedule: Q04DX003 (ip), vehicle: saline with Tween-80) was 272 % of control and the T/C (dose: 4.0 mg/kg/injection, schedule: Q04DX003 (ip), vehicle: saline) was 263 % of control. The T/C (dose: 6.0 mg/kg/injection, schedule: Q04DX003 (ip), vehicle: saline with Tween-80) was 272 % of control, the T/C (dose: 6.25 mg/kg/injection, schedule: Q01DX009 (ip), vehicle: saline with Tween-80) was 109 % of control and the T/C (dose: 8.0 mg/kg/injection, schedule: Q01DX001 (ip), vehicle: saline + alcohol) was 232 % of control. For the same compound, the T/C (dose: 8.0 mg/kg/injection, schedule: Q01DX001 (iv), vehicle: saline + alcohol) was 158 % of control, the T/C (dose: 8.0 mg/kg/injection, schedule: Q01DX005 (iv), vehicle: saline + alcohol) was 252 % of control and the T/C (dose: 8.0 mg/kg/injection, schedule: Q01DX005 (oral), vehicle: saline + alcohol) was 315 % of control. For the same compound, the T/C (dose: 9.0 mg/kg/injection, schedule: Q04DX003 (ip), vehicle: saline with Tween-80) was 272 % of control, the T/C (dose: 12.5 mg/kg/injection, schedule: Q04DX003 (ip), vehicle: saline with Tween-80) was 87 % of control and the T/C (dose: 13.0 mg/kg/injection, schedule: Q01DX001 (ip), vehicle: saline with Tween-80) was 517 % of control. For the same compound, the T/C (dose: 16.0 mg/kg/injection, schedule: Q01DX001 (ip), vehicle: saline + alcohol) was 312 % of control, the T/C (dose: 16.0 mg/kg/injection, schedule: Q01DX001 (iv), vehicle: saline + alcohol) was 203 % of control and the T/C (dose: 16.0 mg/kg/injection, schedule: Q01DX001 (oral), vehicle: saline + alcohol) was 187 % of control. The T/C (dose: 16.0 mg/kg/injection, schedule: Q01DX005 (oral), vehicle: saline + alcohol) was 119 % of control.
With `CN1C(=O)C(C)(C)CN(c2ccccc2)C1=S` the T/C [1] was 100 % of control, the T/C [2] was 108 % of control and the T/C [3] was 103 % of control.
`O=C1CC(c2ccc(OCN(CCCl)CCCl)cc2)CC(=O)C1CN(CCCl)CCCl` (configuration not stated) was tested, and the T/C (dose: 2.0 mg/kg/injection, schedule: Q01DX009 (ip), vehicle: Klucel (hydroxypropylcellulose) (HPC)) was 117 % of control, the T/C (dose: 4.0 mg/kg/injection, schedule: Q01DX009 (ip), vehicle: Klucel (hydroxypropylcellulose) (HPC)) was 160 % of control and the T/C (dose: 8.0 mg/kg/injection, schedule: Q01DX009 (ip), vehicle: Klucel (hydroxypropylcellulose) (HPC)) was 153 % of control. The T/C (dose: 16.0 mg/kg/injection, schedule: Q01DX009 (ip), vehicle: Klucel (hydroxypropylcellulose) (HPC)) was 166 % of control and 173 % of control and the T/C (dose: 32.0 mg/kg/injection, schedule: Q01DX009 (ip), vehicle: Klucel (hydroxypropylcellulose) (HPC)) was 190 % of control.
For `CCCC(NC(=O)OCc1ccccc1)C(=O)NC(Cc1ccc(O)cc1)C(N)=O` (configuration not stated) (Cbz-[Nva]-Tyr-NH2; configuration not given here), the T/C [4] was 92 % of control, the T/C [5] was 100 % of control and the T/C [6] was 88 % of control.
With `N#CC(C#N)C(c1ccccc1)c1cccc2ccccc12` (configuration not stated) the T/C (dose: 100.0 mg/kg/injection, schedule: Q01DX001 (ip), vehicle: Klucel (hydroxypropylcellulose) (HPC)) was 101 % of control, the T/C (dose: 200.0 mg/kg/injection, schedule: Q01DX001 (ip), vehicle: Klucel (hydroxypropylcellulose) (HPC)) was 109 % of control and the T/C (dose: 400.0 mg/kg/injection, schedule: Q01DX001 (ip), vehicle: Klucel (hydroxypropylcellulose) (HPC)) was 104 % of control.
With `c1ccc2c(c1)Nc1ccc3ccccc3c1S2` the T/C [7] was 98 % of control, the T/C [8] was 105 % of control and the T/C [9] was 96 % of control. For the same compound, the T/C [10] was 108 % of control.
With `O=C(O)c1cscn1.O=C(O)c1cscn1.O=C(O)c1cscn1.O=C(O)c1cscn1.[Cl][Rh][Cl]` the T/C (dose: 50.0 mg/kg/injection, schedule: Q01DX005 (ip), vehicle: saline + alcohol) was 101 % of control, the T/C (dose: 100.0 mg/kg/injection, schedule: Q01DX005 (ip), vehicle: saline + alcohol) was 107 % of control and the T/C (dose: 200.0 mg/kg/injection, schedule: Q01DX005 (ip), vehicle: saline + alcohol) was 104 % of control.
For `Cc1cc2c(cc1C)NC1=C(N2)OC(c2ccc3c(c2)OCO3)C1=O` (configuration not stated), the T/C (dose: 30.0 mg/kg/injection, schedule: Q01DX005 (ip), vehicle: Klucel (hydroxypropylcellulose) (HPC)) was 88 % of control, the T/C [11] was 101 % of control and 97 % of control and the T/C [12] was 100 % of control and 104 % of control.
With `CCOC(=O)c1cc2c(nn3c(C)cccc23)n(CC)c1=N` the T/C (dose: 3.12 mg/kg/injection, schedule: Q01DX001 (ip), vehicle: saline) was 100 % of control and 101 % of control, the T/C (dose: 6.25 mg/kg/injection, schedule: Q01DX001 (ip), vehicle: saline) was 101 % of control and 105 % of control and the T/C (dose: 12.5 mg/kg/injection, schedule: Q01DX001 (ip), vehicle: saline) was 100 % of control and 98 % of control. For the same compound, the T/C (dose: 25.0 mg/kg/injection, schedule: Q01DX001 (ip), vehicle: saline) was 103 % of control and 93 % of control.
With `OC(CCl)Cn1nc2ccc3ccccc3c2n1` (configuration not stated) the T/C [4] was 102 % of control, the T/C [5] was 100 % of control and the T/C (dose: 100.0 mg/kg/injection, schedule: Q04DX003 (ip), vehicle: Klucel (hydroxypropylcellulose) (HPC)) was 103 % of control. The T/C [6] was 101 % of control, the T/C (dose: 200.0 mg/kg/injection, schedule: Q04DX003 (ip), vehicle: Klucel (hydroxypropylcellulose) (HPC)) was 102 % of control and the T/C (dose: 400.0 mg/kg/injection, schedule: Q04DX003 (ip), vehicle: Klucel (hydroxypropylcellulose) (HPC)) was 96 % of control.
For `CC1(C)CCCc2conc21`, the T/C [8] was 96 % of control, the T/C [9] was 101 % of control and the T/C [10] was 96 % of control.
For `COc1ccc(-c2cc(-c3cc(-c4ccc(OC)cc4)on3)no2)cc1`, the T/C (dose: 60.0 mg/kg/injection, schedule: Q01DX005 (ip), vehicle: saline) was 100 % of control, the T/C (dose: 120.0 mg/kg/injection, schedule: Q01DX005 (ip), vehicle: saline) was 92 % of control and the T/C (dose: 240.0 mg/kg/injection, schedule: Q01DX005 (ip), vehicle: saline) was 97 % of control.
With `COc1ccc(OC)c(N(CCN2C(=O)c3ccccc3C2=O)C(=O)C2CCC(=O)C2C)c1` (configuration not stated) the T/C [13] was 99 % of control and the T/C [14] was 87 % of control.
In the case of `C1CCCNCCNCCNCC1`, the T/C [13] is reported as 98 % of control, the T/C [14] is reported as 100 % of control and the T/C (dose: 240.0 mg/kg/injection, schedule: Q01DX005 (ip), vehicle: saline with Tween-80) is reported as 92 % of control.
`Cc1ccc(NC(O)(C(F)(F)F)C(F)(F)F)cc1` was tested, and the T/C (dose: 100.0 mg/kg/injection, schedule: Q04DX002 (ip), vehicle: Klucel (hydroxypropylcellulose) (HPC)) was 100 % of control, the T/C (dose: 200.0 mg/kg/injection, schedule: Q04DX002 (ip), vehicle: Klucel (hydroxypropylcellulose) (HPC)) was 97 % of control and the T/C (dose: 400.0 mg/kg/injection, schedule: Q04DX002 (ip), vehicle: Klucel (hydroxypropylcellulose) (HPC)) was 96 % of control.
In the case of `CCCCC(=O)Oc1cc(=O)n(C)c2cc(C)n(C)c(=O)c12`, the T/C [11] is reported as 98 % of control, the T/C [12] is reported as 103 % of control and the T/C (dose: 240.0 mg/kg/injection, schedule: Q01DX005 (ip), vehicle: Klucel (hydroxypropylcellulose) (HPC)) is reported as 106 % of control.
`Cc1ncc(C(=O)O)c2c1OC(C)(C)OC2` was tested, and the T/C [1] was 104 % of control, the T/C [2] was 100 % of control and the T/C [3] was 98 % of control.
In the case of `CCOc1ccc2nc(SCCl)sc2c1`, the T/C [7] is reported as 101 % of control, the T/C [8] is reported as 99 % of control and the T/C [9] is reported as 91 % of control.
